These results are taken from patent US9440980B2, “Remedy for diabetes” (EA Pharma Co., Ltd., priority 2007, dated 2016).

For assay [1], the system named is PI3-kinase α (p110α/p85α). Briefly: PI3-kinase subtype activity in the presence of Gβ1γ2-Myc (PIP3 production, 32P-ATP, TLC). It is filed as biochemical. As to conditions: 30 μM, FIG. 13.
Experimental: The subtypes α (PI3 Kinase (p110α/p85α), active, Upstate, Product No. 14-602), β (PI3 Kinase (p110β/p85α), active, Upstate, Product No. 14-603), γ ((PI3KγHis-GST (Phosphoinositide 3-kinase p110γHis/p101GST) human, Recombinant, Sf9 insect cell, JENA Bioscience, Product No. PR-347S), and δ (PI3 Kinase (p110δ/p85α), active, Upstate, Product No. 14-604) were used as the PI3-kinase subtypes respectively. A PI3K buffer (40 mM HEPES-Na (pH 7.4), 120 mM NaCl, 1 mM EGTA, 1 mM dithiothreitol, 1 mM β glycerophosphoric acid, 10 mM MgCl2, 0.1% BSA) was used as a buffer in the following reactions.
A mixture liquid of phosphatidylethanolamine (0.256 μmol), phosphatidylserine (0.24 μmol), phosphatidylcholine (0.112 μmol), sphingomyelin (0.024 μmol), and phosphatidylinositol-[4,5]-bisphosphate (0.032 μmol) was added to a glass tube and dried by argon gas, and to this was added the PI3K buffer (0.27 ml) at ice temperature. This solution was ultrasonic-treated in ice to prepare a lipid micelle solution. […] The data were analyzed by a software of BAS2000, the analysis region was controlled such that spots of phosphatidylinositol-[3,4,5]-trisphosphate (PIP3) in the TLC lanes have the same areas, and the energy (PSL) corresponding to each radioactivity was quantified in the region.
The target of another assay is T1, Gβ1γ2-Myc (Homo sapiens, UniProt P62873).
T1 construct: made in house; host or cells: Sf21 insect cells (baculovirus), unpurified Triton X-100 extract
T1 sequence (P62873 whole entry): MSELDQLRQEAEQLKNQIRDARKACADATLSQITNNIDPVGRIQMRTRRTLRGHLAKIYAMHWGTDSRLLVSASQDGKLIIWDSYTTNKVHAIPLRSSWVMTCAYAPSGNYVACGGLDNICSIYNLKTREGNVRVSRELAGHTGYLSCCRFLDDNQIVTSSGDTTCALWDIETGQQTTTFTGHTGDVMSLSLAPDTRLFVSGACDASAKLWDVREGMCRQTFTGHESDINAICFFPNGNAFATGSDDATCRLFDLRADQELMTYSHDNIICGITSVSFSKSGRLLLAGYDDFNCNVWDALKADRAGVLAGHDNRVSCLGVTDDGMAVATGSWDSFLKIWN
T1 sequence (P59768 with tags, fused parts or gaps partner limits assumed): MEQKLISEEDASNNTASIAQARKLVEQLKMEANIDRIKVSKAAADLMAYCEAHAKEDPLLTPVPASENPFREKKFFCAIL
Briefly: Gβ binding ability using Gβ-expressing insect cell extract solution (PD10 method). As to conditions: binding strength Compound 1>Compound 3>Compound 6, FIG. 8. On the procedure: The PD10 method was carried out as follows. To a microtube were added 250 μl of an RBA buffer, 100 μl of an RBA buffer containing 0 or 500 μM of the unlabeled Compound 1, 100 μl of the above extract solution, and 50 μl of an RBA buffer containing 2.5 μM of the ^3H-labeled Compound 1 successively, and the resultant mixture was stirred and left at room temperature for 1 hour. The entire reaction solution (0.5 ml) was added to a PD10 column sufficiently substituted with the RBA buffer, 2 ml of the RBA buffer was passed through the PD10 column, and thereafter further eluate by 1.5 ml of the RBA buffer was collected as a high-molecular fraction containing the protein, 15 ml of a liquid scintillator was added thereto, and the amount of the ^3H-labeled Compound 1 contained in the high-molecular fraction was measured by a scintillation counter. The count of the sample added with the unlabeled Compound 1 at the final concentration of 100 μM was considered to correspond to the nonspecific binding, the difference between the nonspecific binding count and the count of the sample not added with the unlabeled Compound 1 was considered to correspond to the specific binding, and thus the amount of the binding protein contained in the extract solution was evaluated.
Using the frozen insect cell Sf21 expressing the Gβ1, Myc-Gγ2, and Gαi1-His prepared in Example 19 (8), 10^7 cells were melted and suspended in 1.3 ml of an RBA buffer containing 1% Triton X-100 (75 mM Tris-HCl, 12.5 mM MgCl2, 2 mM EDTA, pH 7.4). […]
The inhibitory activity against the binding of the ^3H-labeled Compound 1 to the Gβ1γ2-Myc was considered to correspond to the activity of the compounds for binding to the Gβ1γ2-Myc. Thus, the activity of each of Compounds 1, 3, and 6 for binding to the Gβ1γ2-Myc was measured using the above extract solution. The activity of the ^3H-labeled Compound 1 for binding to the protein contained in the extract solution was measured by the PD10 method described in Example 15 (1). […]

`O=C1NCC2=C1[C@@H](c1cccc3ccsc13)N(C(=O)CCc1ccccn1)[C@@H]1CCCC[C@H]1N2` [Compound 1]: in assay [1], the “effect on PI3-kinase α activity” value was “only on the PI3-kinase β”. Further, at Gβ1γ2-Myc, the “binding to Gβ1γ2-Myc (inhibition of 3H-labeled Compound 1 binding)” value was “could be bound to the Gβγ2-Myc”.

As to `O=C1NCC2=C1[C@@H](c1ccccc1)N(C(=O)CO)[C@@H]1CCCC[C@H]1N2` [Compound 6], the “binding to Gβ1γ2-Myc (inhibition of 3H-labeled Compound 1 binding)” value on Gβ1γ2-Myc is on record as “could be bound to the Gβγ2-Myc”.
